Consider 1 compound from publication PMC6407917, “Identification of GSK3186899/DDD853651 as a Preclinical Development Candidate for the Treatment of Visceral Leishmaniasis” (Journal of Medicinal Chemistry, 2018).

Among the targets are ULK3 (Homo sapiens, UniProt Q6PHR2); IKBKB (Homo sapiens, UniProt O14920); TNK2 (Homo sapiens, UniProt Q07912); PFKL (Homo sapiens, UniProt P17858); MAPK1 (Homo sapiens, UniProt P28482); CDK2 (Homo sapiens, UniProt P24941); PIM2 (Homo sapiens, UniProt Q9P1W9); JAK3 (Homo sapiens, UniProt P52333); ERBB4 (Homo sapiens, UniProt Q15303); HIPK3 (Homo sapiens, UniProt Q9H422); JAK2 (Homo sapiens, UniProt O60674); AURKA (Homo sapiens, UniProt O14965); STK39 (Homo sapiens, UniProt Q9UEW8); NLK (Homo sapiens, UniProt Q9UBE8); MAP4K4 (Homo sapiens, UniProt O95819); MAPK9 (Homo sapiens, UniProt P45984); PRKAG2 (Homo sapiens, UniProt Q9UGJ0); ADCK1 (Homo sapiens, UniProt Q86TW2); PRKX (Homo sapiens, UniProt P51817); CDKL5 (Homo sapiens, UniProt O76039); RPS6KA3 (Homo sapiens, UniProt P51812).

Assay in all cases: biochemical
Holding throughout (set-up): species or system HEK293/K-562/placenta mixed human extract; Kinobeads chemoproteomic competition binding, quantified by TMT LC-MS/MS, dose response up to 20 uM

Sequence of PIM2 (Q9P1W9 whole entry): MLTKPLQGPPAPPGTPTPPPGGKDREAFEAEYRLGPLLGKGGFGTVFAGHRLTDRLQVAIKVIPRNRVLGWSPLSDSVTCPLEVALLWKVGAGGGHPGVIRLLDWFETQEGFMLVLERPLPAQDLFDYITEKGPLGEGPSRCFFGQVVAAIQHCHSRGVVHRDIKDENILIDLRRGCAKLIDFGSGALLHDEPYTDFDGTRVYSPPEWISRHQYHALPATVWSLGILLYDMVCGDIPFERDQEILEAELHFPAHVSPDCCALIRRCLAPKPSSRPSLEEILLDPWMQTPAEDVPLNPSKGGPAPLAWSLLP
Sequence of CDKL5 (O76039 whole entry): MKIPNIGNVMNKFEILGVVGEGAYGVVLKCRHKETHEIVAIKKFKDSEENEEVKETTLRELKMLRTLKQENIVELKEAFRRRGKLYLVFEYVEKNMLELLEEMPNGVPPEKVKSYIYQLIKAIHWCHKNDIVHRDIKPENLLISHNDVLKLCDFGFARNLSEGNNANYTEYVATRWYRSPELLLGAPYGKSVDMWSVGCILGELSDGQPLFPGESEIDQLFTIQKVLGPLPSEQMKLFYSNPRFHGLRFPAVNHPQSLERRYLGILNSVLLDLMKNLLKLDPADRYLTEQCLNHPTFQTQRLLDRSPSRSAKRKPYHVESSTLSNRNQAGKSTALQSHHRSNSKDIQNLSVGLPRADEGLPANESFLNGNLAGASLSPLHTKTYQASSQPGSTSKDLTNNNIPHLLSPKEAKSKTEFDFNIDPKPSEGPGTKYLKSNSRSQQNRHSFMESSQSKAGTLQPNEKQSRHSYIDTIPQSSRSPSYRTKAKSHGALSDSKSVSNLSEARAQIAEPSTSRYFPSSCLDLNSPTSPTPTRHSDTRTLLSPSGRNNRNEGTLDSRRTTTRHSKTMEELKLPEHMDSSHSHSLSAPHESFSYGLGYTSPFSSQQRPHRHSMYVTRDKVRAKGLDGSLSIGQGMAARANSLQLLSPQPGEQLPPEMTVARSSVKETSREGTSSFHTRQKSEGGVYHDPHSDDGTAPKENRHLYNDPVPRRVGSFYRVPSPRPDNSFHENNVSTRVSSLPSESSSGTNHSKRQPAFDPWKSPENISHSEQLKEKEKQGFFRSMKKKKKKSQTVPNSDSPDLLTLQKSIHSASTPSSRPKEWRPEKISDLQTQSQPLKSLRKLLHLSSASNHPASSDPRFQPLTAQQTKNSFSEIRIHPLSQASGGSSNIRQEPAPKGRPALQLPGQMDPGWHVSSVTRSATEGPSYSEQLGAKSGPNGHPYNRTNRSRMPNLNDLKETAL
Sequence of MAPK1 (P28482 whole entry): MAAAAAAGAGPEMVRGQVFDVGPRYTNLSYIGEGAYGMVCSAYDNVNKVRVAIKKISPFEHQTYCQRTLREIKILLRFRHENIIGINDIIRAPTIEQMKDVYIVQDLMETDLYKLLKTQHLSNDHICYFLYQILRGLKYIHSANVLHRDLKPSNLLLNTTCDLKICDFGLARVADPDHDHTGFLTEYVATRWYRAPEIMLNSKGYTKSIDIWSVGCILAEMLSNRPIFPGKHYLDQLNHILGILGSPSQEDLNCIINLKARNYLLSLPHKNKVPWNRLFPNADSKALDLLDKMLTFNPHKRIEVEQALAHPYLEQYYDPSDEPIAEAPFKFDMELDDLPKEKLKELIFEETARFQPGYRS
Sequence of AURKA (O14965 whole entry): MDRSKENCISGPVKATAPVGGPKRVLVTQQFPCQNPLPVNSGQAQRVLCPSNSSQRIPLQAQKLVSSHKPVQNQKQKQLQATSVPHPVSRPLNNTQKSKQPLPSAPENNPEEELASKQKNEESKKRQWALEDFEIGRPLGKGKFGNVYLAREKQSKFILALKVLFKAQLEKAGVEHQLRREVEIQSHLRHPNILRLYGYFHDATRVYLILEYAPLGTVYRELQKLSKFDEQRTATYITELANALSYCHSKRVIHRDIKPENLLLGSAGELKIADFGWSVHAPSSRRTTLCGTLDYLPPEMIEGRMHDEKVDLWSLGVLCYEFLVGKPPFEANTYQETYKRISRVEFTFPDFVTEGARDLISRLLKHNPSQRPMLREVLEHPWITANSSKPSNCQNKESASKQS
Sequence of PRKAG2 (Q9UGJ0 whole entry): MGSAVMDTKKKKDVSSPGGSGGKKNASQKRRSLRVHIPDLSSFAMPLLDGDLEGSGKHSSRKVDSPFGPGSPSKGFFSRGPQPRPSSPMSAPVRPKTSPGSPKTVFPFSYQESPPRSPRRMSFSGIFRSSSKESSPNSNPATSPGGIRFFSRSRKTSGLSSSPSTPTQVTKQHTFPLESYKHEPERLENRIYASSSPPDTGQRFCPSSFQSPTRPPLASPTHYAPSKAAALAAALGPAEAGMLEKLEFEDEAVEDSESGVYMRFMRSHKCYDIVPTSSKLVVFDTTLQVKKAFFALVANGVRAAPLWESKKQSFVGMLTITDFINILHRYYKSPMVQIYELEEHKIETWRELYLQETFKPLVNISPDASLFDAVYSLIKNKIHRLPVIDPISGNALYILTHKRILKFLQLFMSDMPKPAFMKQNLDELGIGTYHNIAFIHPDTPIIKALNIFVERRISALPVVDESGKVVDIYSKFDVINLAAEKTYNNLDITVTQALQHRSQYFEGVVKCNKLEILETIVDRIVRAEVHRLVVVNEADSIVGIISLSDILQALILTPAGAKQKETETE
Sequence of ADCK1 (Q86TW2 whole entry): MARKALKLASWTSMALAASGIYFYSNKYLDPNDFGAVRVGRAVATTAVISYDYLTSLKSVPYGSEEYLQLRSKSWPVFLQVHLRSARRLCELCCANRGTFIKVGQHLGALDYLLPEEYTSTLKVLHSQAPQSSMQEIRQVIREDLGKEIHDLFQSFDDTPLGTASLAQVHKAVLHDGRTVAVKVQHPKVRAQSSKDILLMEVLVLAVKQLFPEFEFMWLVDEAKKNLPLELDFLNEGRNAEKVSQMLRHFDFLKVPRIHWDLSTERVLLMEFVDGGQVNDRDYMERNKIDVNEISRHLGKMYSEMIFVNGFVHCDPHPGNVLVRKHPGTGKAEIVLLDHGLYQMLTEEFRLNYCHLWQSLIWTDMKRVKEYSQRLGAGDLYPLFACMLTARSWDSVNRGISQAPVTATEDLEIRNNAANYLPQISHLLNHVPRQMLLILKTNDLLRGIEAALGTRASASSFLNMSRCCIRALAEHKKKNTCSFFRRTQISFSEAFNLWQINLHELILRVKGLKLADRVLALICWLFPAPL
Sequence of ERBB4 (Q15303 whole entry): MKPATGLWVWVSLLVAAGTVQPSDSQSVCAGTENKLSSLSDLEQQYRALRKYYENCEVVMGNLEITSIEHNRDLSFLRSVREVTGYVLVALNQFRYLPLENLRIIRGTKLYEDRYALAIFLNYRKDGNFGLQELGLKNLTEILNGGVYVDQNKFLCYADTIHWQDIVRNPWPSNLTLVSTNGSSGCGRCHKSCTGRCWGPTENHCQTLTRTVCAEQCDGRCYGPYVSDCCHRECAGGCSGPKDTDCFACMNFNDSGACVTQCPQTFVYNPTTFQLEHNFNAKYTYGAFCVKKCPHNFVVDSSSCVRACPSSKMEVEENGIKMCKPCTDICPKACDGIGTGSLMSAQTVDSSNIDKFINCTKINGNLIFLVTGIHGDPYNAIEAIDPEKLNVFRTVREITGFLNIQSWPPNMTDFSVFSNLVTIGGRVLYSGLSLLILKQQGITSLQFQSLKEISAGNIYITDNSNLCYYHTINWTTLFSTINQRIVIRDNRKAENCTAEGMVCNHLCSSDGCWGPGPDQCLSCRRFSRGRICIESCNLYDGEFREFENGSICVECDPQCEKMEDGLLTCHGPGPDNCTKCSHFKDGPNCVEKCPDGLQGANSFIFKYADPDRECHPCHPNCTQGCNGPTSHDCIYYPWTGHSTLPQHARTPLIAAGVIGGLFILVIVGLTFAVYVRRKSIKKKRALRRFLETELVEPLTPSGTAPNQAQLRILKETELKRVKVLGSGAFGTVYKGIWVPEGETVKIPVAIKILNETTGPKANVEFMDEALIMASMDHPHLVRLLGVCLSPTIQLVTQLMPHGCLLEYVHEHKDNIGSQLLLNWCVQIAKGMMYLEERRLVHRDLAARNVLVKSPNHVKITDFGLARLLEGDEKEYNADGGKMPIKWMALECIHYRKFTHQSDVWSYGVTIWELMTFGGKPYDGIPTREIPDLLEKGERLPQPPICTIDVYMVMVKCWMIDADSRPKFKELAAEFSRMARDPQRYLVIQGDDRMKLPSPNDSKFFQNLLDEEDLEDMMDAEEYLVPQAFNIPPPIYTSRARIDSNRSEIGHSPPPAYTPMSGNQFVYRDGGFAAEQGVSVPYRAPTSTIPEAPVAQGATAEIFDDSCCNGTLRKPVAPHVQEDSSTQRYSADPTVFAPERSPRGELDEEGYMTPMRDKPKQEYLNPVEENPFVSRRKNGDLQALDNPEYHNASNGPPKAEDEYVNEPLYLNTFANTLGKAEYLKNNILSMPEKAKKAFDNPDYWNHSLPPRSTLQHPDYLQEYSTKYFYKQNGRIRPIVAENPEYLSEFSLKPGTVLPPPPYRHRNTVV
Sequence of MAPK9 (P45984 whole entry): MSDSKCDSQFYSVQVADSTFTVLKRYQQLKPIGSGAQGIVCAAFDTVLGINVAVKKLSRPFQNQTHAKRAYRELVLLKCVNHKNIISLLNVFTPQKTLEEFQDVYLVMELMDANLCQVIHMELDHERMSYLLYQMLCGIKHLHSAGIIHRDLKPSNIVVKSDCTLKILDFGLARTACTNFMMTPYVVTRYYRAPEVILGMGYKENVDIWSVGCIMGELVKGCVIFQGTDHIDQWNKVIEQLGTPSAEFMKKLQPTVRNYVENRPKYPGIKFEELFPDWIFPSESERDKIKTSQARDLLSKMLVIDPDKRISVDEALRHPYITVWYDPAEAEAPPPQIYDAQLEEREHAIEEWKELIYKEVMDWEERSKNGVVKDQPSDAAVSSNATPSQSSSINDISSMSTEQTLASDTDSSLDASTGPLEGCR

As to `COc1ccccc1-c1n[nH]c2nc(N[C@H]3CC[C@H](NS(=O)(=O)CCC(F)(F)F)CC3)nc(OC)c12` [compound 31, 3,3,3-Trifluoro-N-(trans-4-((4-methoxy-3-(2-methoxyphenyl)-1H-pyrazolo[3,4-d]pyrimidin-6-yl)amino)cyclohexyl)propane-1-sulfonamide], the IC50 at ULK3 was no less than 20 µM; on IKBKB, no less than 20 µM; at TNK2, no less than 20 µM; at PFKL it was no less than 20 µM; on MAPK1 it was no less than 20 µM; on CDK2, 1.2 µM. Also, the half-inhibitory concentration (IC50) on PIM2, on JAK3, at ERBB4, at HIPK3, at JAK2 and at AURKA was no less than 20 µM in each case. For the same compound, the IC50 on STK39 was no less than 20 µM; on NLK, 3.4 µM; at MAP4K4 it was no less than 20 µM; on MAPK9, no less than 20 µM; on PRKAG2, no less than 20 µM; on ADCK1, no less than 20 µM. In addition, the IC50 at PRKX, at CDKL5 and at RPS6KA3 was no less than 20 µM each time.

The term IC50 denotes the concentration that gives 50% inhibition. A low value points to greater potency in that assay.
